Test results from patent US9656972B2, “Compounds for treatment of cystic fibrosis” (THE CALIFORNIA INSTITUTE FOR BIOMEDICAL RESEARCH, priority 2013, dated 2017).

Experiments:
guinea-pigs = assay: Tracheal potential difference (TPD) after intra-tracheal dosing in guinea pigs; assay type: in vivo; conditions: guinea pig; for TPD (mV): i.t. instillation, mean; for TPD Assessment Time after i.t. Treatment 1 hr / TPD Assessment Time after i.t. Treatment 3 hr / TPD Assessment Time after i.t. Treatment 5 hr / TPD Assessment Time after i.t. Treatment 8 hr / TPD Assessment Time after i.t. Treatment 24 hr / TPD Assessment Time after i.t. Treatment 48 hr: Table 3, mean ± sem
Text: Cystic fibrosis (CF) and chronic obstructive pulmonary disease (COPD) is dysregulated clearance of mucus across the cell layers lining the respiratory tract. A therapeutic strategy to treat these diseases is to inhibit these channels or the regulators of these channels in an effort to correct this mucus clearance defect. Potential difference is used in the clinic as a diagnostic tool for cystic fibrosis sufferers and for clinical trials. Small molecule inhibitors of these targets will enhance mucociliary clearance and thereby improve lung function and reduce the rate of exacerbations in cystic fibrosis (CF) and chronic obstructive pulmonary disease (COPD) patients. The guinea pig, unlike other rodents, has a lung structure which is roughly analogous to the human lung. For this reason, in terms of rodent models of lung function the guinea pig is often the model of choice for respiratory disease models including asthma, COPD and respiratory distress syndrome.
Preparation of Agar Bridges
Agar (3.5%) was dissolved in Hank's buffered salt solution (pH 7.4, 280-305 mosmkg_1H2O) by heating in a water bath at 100° C. A 30-40 cm length of polyethylene tubing, of which one end was bevelled at an angle of 20-60°, was then filled with the agar ensuring no air bubbles were formed or trapped within the tubing. The beveled tip of the tube was then dipped in the liquid agar, creating a small bulge. The exploring and reference electrodes constructed with the Hank's buffered salt solution/agar bridge were linked to a calomel half cell by immersion in 1M KCl.
Guinea pigs received a single dose of either the test article or vehicle instilled directly into the trachea. The animal was placed under short-term anesthesia using an inhaled isoflurane/nitrous oxide (N2O) 1:1 mixture (level 5/optimal for ˜10 sec.; 3.5/2 for 5 min.). At this suitable depth of anesthesia (loss of pedal and blink reflex), a single dose of either the test article, vehicle and/or positive control was instilled directly into the trachea. This was accomplished by very delicately inserted the 3″, 18 guage feeding tube into the trachea to preserve the potential difference of the mucosa. The guinea pig was allowed to recovered immediately; at times with the aid of supplemental O2. […] If there was apparent toxicity, animals were euthanized immediately and all observation was appropriately documented. As the animal was anesthetized during this treatment, no local anesthesia was necessary and there was no need to use a laryngoscope.
30 minutes prior to the 3 hr post dosing surgery each guinea pig received a dose of 0.4 mL of Midazolam-5 mg/mL, intra-peritoneal (i.p.) injection followed 25 minutes later with a 1 mL/kg of 50 mg/kg ketamine/6.5 mg/kg xylazine i.p. injection (previously prepared with 100 mg/mL ketamine and 25 mg/mL xylazine in Sterile Water for Injection USP mixed at 2:1:1 respectively). […] The trachea was exposed and visualized near the sternum using minimal blunt dissection. A lateral incision was made between the cartilaginous rings of the trachea close to the sternum. The beveled (distal) end of an exploring electrode was gently inserted into the lumen of the trachea moving in the direction towards the larynx, ensuring that spontaneous respiration was still possible. The beveled end of the reference electrode was positioned near the trachea in electrical contact with the flesh of the throat. A small volume of HBSS was applied into this region to ensure a good electrical contact. Potential difference was measured using a high impedance voltmeter (IsoMil) (5-0.5 cm increment measurement for verification—but only the initial placement value is recorded). The animal was terminated immediately after this procedure while still under anesthesia with an intra-cardiac dose of 0.5 mL of Euthasol.

[1] = Systemic (plasma) exposure after intratracheal dosing; assay type: in vivo, guinea pig; conditions: 1 mg/kg single dose, compared with monomeric GS-9411
Procedure: A comparison of systemic (plasma exposure) of monomeric compound GS-9411 and dimeric compound 28 after intratracheal dosing was performed (at 1 mg/kg single dose).

[2] = Table 2 controls, dose 300 ug/kg, vehicle −12.4
[3] = Table 1, dose 30 ug/kg, 3 hr after dosing
[4] = Table 1, dose 300 ug/kg, 3 hr after dosing
[5] = Table 1, dose 0.2 ug/kg, 3 hr after dosing

Structure (SMILES): NC(=NCc1ccccc1)NC(=O)c1nc(Cl)c(N)nc1N [Benzamil]
- TPD (mV) (guinea-pigs; [2]): −6.2 mV
- TPD Assessment Time after i.t. Treatment 1 hr (guinea-pigs; 300 μg/kg): −8.9 (1)
- TPD Assessment Time after i.t. Treatment 3 hr (guinea-pigs; 300 μg/kg): −7.2 (1)
- TPD Assessment Time after i.t. Treatment 5 hr (guinea-pigs; 300 μg/kg): −8.5 (1)
- TPD Assessment Time after i.t. Treatment 8 hr (guinea-pigs; 300 μg/kg): −6.5 (1)
- TPD Assessment Time after i.t. Treatment 24 hr (guinea-pigs; 300 μg/kg): −4.8 (1)
- TPD Assessment Time after i.t. Treatment 48 hr (guinea-pigs; 300 μg/kg): −10.0 ± 0.07 (2)

Structure (SMILES): CN(C)C(=O)COC(=O)Cc1ccc(OC(=O)c2ccc(NC(=N)N)cc2)cc1 [Camostat]
- TPD (mV) (guinea-pigs; [2]): −4.9 mV

Structure (SMILES): N=C(NCCCCc1ccc(OCCOCCNC(=O)C(O)C(O)C(=O)NCCOCCOc2ccc(CCCCNC(=N)NC(=O)c3nc(Cl)c(N)nc3N)cc2)cc1)NC(=O)c1nc(Cl)c(N)nc1N (stereo not drawn) [Compound 16]
- TPD (mV) (guinea-pigs; [3]): −6.30 mV

Structure (SMILES): N=C(NCCCCc1ccc(OCCOCCOC(=O)NCCCCNC(=O)OCCOCCOc2ccc(CCCCNC(=N)NC(=O)c3nc(Cl)c(N)nc3N)cc2)cc1)NC(=O)c1nc(Cl)c(N)nc1N [Compound 28]
- TPD (mV) (guinea-pigs; [4]): −4.00 mV
- TPD Assessment Time after i.t. Treatment 1 hr (guinea-pigs; 30 μg/kg): −6.7 ± 0.65 (3)
- TPD Assessment Time after i.t. Treatment 3 hr (guinea-pigs; 30 μg/kg): −6.4 ± 0.60 (3)
- TPD Assessment Time after i.t. Treatment 5 hr (guinea-pigs; 30 μg/kg): −5.4 ± 1.03 (3)
- TPD Assessment Time after i.t. Treatment 8 hr (guinea-pigs; 30 μg/kg): −5.1 ± 0.54 (3)
- TPD Assessment Time after i.t. Treatment 24 hr (guinea-pigs; 30 μg/kg): −5.9 ± 0.18 (3)
- TPD Assessment Time after i.t. Treatment 48 hr (guinea-pigs; 30 μg/kg): −9.6 ± 1.43 (3)
- lower AUC (total area under the curve) versus GS-9411 [1]: 5 fold
- lower Cmax (maximal concentration) versus GS-9411 [1]: 20 ×

Structure (SMILES): N=C(NCCCCc1ccc(OCCOCCNC(=O)NCCCCNC(=O)NCCOCCOc2ccc(CCCCNC(=N)NC(=O)c3nc(Cl)c(N)nc3N)cc2)cc1)NC(=O)c1nc(Cl)c(N)nc1N [Compound 37]
- TPD (mV) (guinea-pigs; [3]): −7.50 mV
- TPD (mV) (guinea-pigs; [4]): −5.50 mV

Structure (SMILES): COC(=O)C(CCCC(NC(=O)OCCOCCOc1ccc(CCCCNC(=N)NC(=O)c2nc(Cl)c(N)nc2N)cc1)C(=O)OC)NC(=O)OCCOCCOc1ccc(CCCCNC(=N)NC(=O)c2nc(Cl)c(N)nc2N)cc1 (stereo not drawn) [Compound 46]
- TPD (mV) (guinea-pigs; [3]): −7.30 mV

Structure (SMILES): N=C(N)Nc1ccc(C(=O)Oc2ccc3cc(C(=N)NCCOCCOCCNC(=N)c4ccc5cc(OC(=O)c6ccc(NC(=N)N)cc6)ccc5c4)ccc3c2)cc1 [Compound 50]
- TPD (mV) (guinea-pigs; [4]): −6.20 mV

Structure (SMILES): N=C(N)Nc1ccc(C(=O)Oc2ccc(CC(=O)OCC(=O)NCCOCCOCCNC(=O)COC(=O)Cc3ccc(OC(=O)c4ccc(NC(=N)N)cc4)cc3)cc2)cc1 [Compound 53]
- TPD (mV) (guinea-pigs; [3]): −9.3 mV

Structure (SMILES): N=C(NCCCCc1ccc(OCCOCCOCCOCCOCCO)cc1)NC(=O)c1nc(Cl)c(N)nc1N [Compound 66]
- TPD (mV) (guinea-pigs; [3]): −7.80 mV

Structure (SMILES): N=C(NCCCCc1ccc(OCCOCCNC(=O)CCC(=O)NCCOCCOc2ccc(CCCCNC(=N)NC(=O)c3nc(Cl)c(N)nc3N)cc2)cc1)NC(=O)c1nc(Cl)c(N)nc1N [Compound 67]
- TPD (mV) (guinea-pigs; [5]): −7.0 mV

Structure (SMILES): N=C(NCCCCc1ccc(OCCOCCOCCNC(=O)CCC(=O)NCCOCCOCCOc2ccc(CCCCNC(=N)NC(=O)c3nc(Cl)c(N)nc3N)cc2)cc1)NC(=O)c1nc(Cl)c(N)nc1N [Compound 68]
- TPD (mV) (guinea-pigs; [5]): −6.9 mV

Structure (SMILES): N=C(NCCCCc1ccc(OCCOCCOCCNC(=O)C(=O)NCCOCCOCCOc2ccc(CCCCNC(=N)NC(=O)c3nc(Cl)c(N)nc3N)cc2)cc1)NC(=O)c1nc(Cl)c(N)nc1N [Compound 69]
- TPD (mV) (guinea-pigs; [3]): −6.3 mV
